Activity calls are given as the source filed them.
How the values were obtained:
[1] = Counterscreen for […] of the human trace amine associated receptor 1 (TAAR1): Fluorescence-based cell-based high throughput dose response assay to identify nonselective Ga16 agonists.; format: functional
[2] = target: T1, Trace amine-associated receptor 1 (Homo sapiens, UniProt Q96RJ0); experiment: Fluorescence-based cell-based high throughput dose response assay to identify antagonists of the human trace amine associated receptor 1 (TAAR1).; format: functional
T1 sequence (Q96RJ0 whole entry): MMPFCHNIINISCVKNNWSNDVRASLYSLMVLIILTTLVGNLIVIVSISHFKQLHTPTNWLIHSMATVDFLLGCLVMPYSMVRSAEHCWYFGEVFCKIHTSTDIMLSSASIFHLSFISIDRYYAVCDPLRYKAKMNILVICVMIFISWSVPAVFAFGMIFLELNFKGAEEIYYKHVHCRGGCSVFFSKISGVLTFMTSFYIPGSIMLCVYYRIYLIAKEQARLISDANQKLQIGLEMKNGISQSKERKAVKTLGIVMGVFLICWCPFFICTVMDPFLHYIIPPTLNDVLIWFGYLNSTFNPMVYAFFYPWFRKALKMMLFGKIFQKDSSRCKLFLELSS

[3] = Counterscreen for antagonists of the human trace amine associated receptor 1 (hTAAR1): Fluorescence-based cell-based high throughput dose response assay to identify nonselective Ga16 antagonists.; format: functional
[4] = target: T1, Trace amine-associated receptor 1; experiment: Counterscreen for antagonists of the human trace amine associated receptor 1 (hTAAR1): Fluorescence-based cell-based high throughput dose response assay to identify TAAR1 Agonists.; format: functional
Major prion protein = Major prion protein (Homo sapiens, UniProt P04156); format: functional, cell-based
cells [5] = experiment: cells
[6] = inhibitors of TRPM1-promoter reporter in SK-MEL-5 – cell-based, luciferase, dry powder, set 9, MITF inhibitor project, dose response (AID 651588); format: functional
[7] = cytotoxicity in MITF-independent A375 cells – cell-based, CellTiter-Glo luminescence, dry powder, set 4, counter-screen for MITF inhibitor project, dose response (AID 624364); format: functional; settings: A-375;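 also: A375 melanoma cells are MITF independent so this is a counter screen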
[8] = viability loss in MITF-independent A375 cells – cell-based, CellTiter-Glo luminescence, dry powder, set 7, counter-screen for MITF inhibitor project, dose response (AID 624490); format: functional; settings: A-375
[9] = MITF Orthogonal Assay: MALME3 CTG Assay Measured in Cell-Based System Using Plate Reader - 2084-04_Inhibitor_Dose_DryPowder_Activity_Set6.; format: functional; settings: MALME-3
[10] = growth inhibition of SK-MEL-5 melanoma cells – cell-based, CellTiter-Glo luminescence, dry powder, set 8, orthogonal assay for MITF inhibitor project, dose response (AID 651586); format: functional
[11] = growth inhibition of MALME3 cells – cell-based, CellTiter-Glo luminescence, dry powder, set 5, orthogonal assay for MITF inhibitor project, dose response (AID 651584); format: functional; settings: MALME-3
[12] = cytotoxicity in melanoma parental cells – cell-based, CellTiter-Glo, dry powder, set 6, MITF inhibitor project, dose response (AID 624429); format: functional; settings: SK-MEL-5
[13] = MITF Orthogonal Assay: SK-MEL-5 CTG Assay Measured in Cell-Based System Using Plate Reader - 2084-02_Inhibitor_Dose_DryPowder_Activity_Set5.; format: functional
[14] = MITF Measured in Cell-Based System Using Plate Reader - 2084-01_Inhibitor_Dose_DryPowder_Activity_Set6.; format: functional
[15] = MITF Measured in Cell-Based System Using Plate Reader - 2084-01_Inhibitor_Dose_DryPowder_Activity_Set7.; format: functional
[16] = melanocyte viability loss, MITF-dependent cells, cell-based, plate reader, dry powder, cytotoxicity control, dose response (AID 651920); format: functional
[17] = HEK293T viability loss – cell-based, ATP luminescence, dry powder, Set6, cytotoxicity control, dose response (AID 743142); format: functional; settings: HEK293
[18] = viability loss in A549 lung cancer cells – cell-based, CellTiter-Glo luminescence, dry powder, set 3, cytotoxicity control, dose response (AID 743146); format: functional
[19] = system: Streptococcus sp. 'group A'; experiment: Streptococcus pyogenes SK(-)GAS viability under kanamycin – luminescence, BacTiterGlo, confirmation, counter-screen for streptokinase expression inhibitor project, dose response (AID 1900); format: functional, organism-based
Streptokinase A = target: T2, Streptokinase A (Streptococcus pyogenes serotype M1, UniProt P10520); experiment: viability-normalized secreted streptokinase activity reduction – plasminogen activation absorbance, OD405, dose response (AID 1914); format: functional, Streptococcus pyogenes M1 GAS;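 also: secreted streptokinase activity via plasminogen activation per viability signal from cell pellet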
T2 sequence (P10520 whole entry): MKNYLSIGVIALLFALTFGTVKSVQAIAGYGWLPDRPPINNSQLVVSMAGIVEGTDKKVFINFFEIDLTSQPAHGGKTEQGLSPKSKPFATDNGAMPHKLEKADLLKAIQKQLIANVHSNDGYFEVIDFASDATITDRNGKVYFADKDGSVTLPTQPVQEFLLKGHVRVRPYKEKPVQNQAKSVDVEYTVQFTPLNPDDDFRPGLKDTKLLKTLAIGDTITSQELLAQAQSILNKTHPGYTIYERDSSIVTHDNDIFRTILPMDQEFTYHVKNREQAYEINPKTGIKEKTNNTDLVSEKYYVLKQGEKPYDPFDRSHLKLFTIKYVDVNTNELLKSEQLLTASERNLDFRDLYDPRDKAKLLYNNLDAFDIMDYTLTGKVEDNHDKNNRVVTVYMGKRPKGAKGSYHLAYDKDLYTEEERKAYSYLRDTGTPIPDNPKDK

Streptococcus = experiment: GAS UMAA2166 growth inhibition – luminescence, BacTiterGlo, counter-screen for streptokinase expression inhibitor project, dose response (AID 1915); format: functional, organism-based;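 also: potency for reduction of bacterial viability or growth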
cells [20] = settings: HEK293
[21] = target: Metabotropic glutamate receptor 3 (Rattus norvegicus, UniProt P31422); experiment: inhibitors of rat mGlu3 Galpha15 signaling – TREx293 cells, calcium flux, mGlu3 NAM project, dose response (AID 651840); format: functional
[22] = target: Muscarinic acetylcholine receptor M5 (Homo sapiens, UniProt P08912); experiment: inhibition of ACh-evoked human M5 signalling – cell-based, CHO-K1 hM5, Fluo-4 calcium flux, ACh EC80, dose response (AID 743110); format: functional
Kallikrein-7 = Kallikrein-7 (Homo sapiens, UniProt P49862); experiment: Fluorescence Intensity-based biochemical primary high throughput dose response assay to identify activators of kallikrein-7 (K7) zymogen.
Paired box protein Pax-8 = Paired box protein Pax-8 (Homo sapiens, UniProt Q06710); experiment: PAX8 transcriptional activity inhibition in RMG-I – RMG-I cells, luciferase, cherry-pick, dose response (AID 687027); format: functional, cell-based;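 also: luciferase reporter driven by Pax8 target thyroperoxidase promoter measured by SteadyGlo luminescence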
[23] = inhibitors acting on PAX2 in cells – cell-based, plate reader, dry powder samples, selectivity assay for PAX8 inhibitor project, dose response (AID 743048); format: functional;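 also: HEK293 cells carrying a WT1 promoter luciferase reporter driven by expressed Pax2; potency is for inhibition of Pax2 driven reporter signal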
[24] = PAX5 cellular inhibition readout – cell-based, plate reader, dry powder samples, selectivity assay for PAX8 inhibitor project, dose response (AID 743047); format: functional;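 also: HEK293 cells carrying a Pax5 driven CD19 promoter luciferase reporter; potency of inhibitors that lower reporter luminescence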
[25] = OVCAR4 cell viability loss – plate reader, dry powder, SA11, cytotoxicity control for PAX8 inhibitor project, dose response (AID 743150); format: functional, cell-based; settings: OVCAR-4
[26] = OV-90 cell viability loss – plate reader, dry powder, SA8, PAX8 inhibitor project, dose response (AID 743149); format: functional, cell-based
[27] = PAX8-dependent cell viability loss – plate reader, dry powder, dose response (AID 743049); format: functional, cell-based

With `CCCC(=O)Nc1ccc(-c2csc(N/N=C\c3ccncc3)n2)cc1` the EC50 [1] was > 29.9 µM (inactive), the IC50 [2] was 9.3 µM (active) and the IC50 [3] was > 29.9 µM (inactive). The EC50 [4] was > 29.9 µM (inactive).

For `O=C(O)CSc1ncnc2scc(-c3ccccc3)c12`, the IC50 (Major prion protein) was 5.04 µM (active) and the IC50 (cells [5]) was > 138 µM (inactive).

With `O=C1C=C(NS(=O)(=O)c2ccc(Br)cc2)C(=O)c2ccccc21` the AC50 [6] was 18.8 µM (active), the AC50 [7] was > 70 µM (inactive) and the AC50 [8] was > 70 µM (inactive). For the same compound, the AC50 [9] was 24.4 µM (active), the AC50 [10] was 11.8 µM (active) and the AC50 [11] was 24.4 µM (active). The AC50 [12] was 11.2 µM (active), the AC50 [13] was 13.1 µM (active) and the AC50 [14] was 6.37 µM (active). For the same compound, the AC50 [15] was 7.45 µM (active) and the AC50 [16] was 14.5 µM (active).

For `Cc1ccc(C(=O)NCCC(=O)N[C@@H]2CCCc3ccccc32)cc1`, the AC50 [17] was 6.22 µM (active) and the AC50 [18] was > 52 µM (inactive).

For `CC(C)(C)[C@H]1CCC(=O)N([C@H](CSc2ccccc2)Cc2ccccc2)CC1`, the EC50 [19] was 7.1 µM (active), the EC50 (Streptokinase A) was 23.2 µM (active) and the EC50 (Streptococcus) was 10.3 µM (active). For the same compound, the AC50 (cells [20]) was > 52 µM (inactive).

In the case of `COc1ccc(C#Cc2ccc(C(=O)N3CCCC(=O)C3)cc2)cc1`, the IC50 [21] is reported as 2.71 µM.

In the case of `COC(=O)c1cccc(OCc2cc(C(=O)N(C)C(C)c3ccccn3)no2)c1` (configuration not stated), the IC50 [22] is reported as 11.1 µM (active).

In the case of `CN1CCSc2ccc(C(=O)NCc3cccc(F)c3)cc21`, the EC50 (Kallikrein-7) is reported as > 69.5 µM (inactive).

For `COc1cccc(-c2ccc([C@H]3[C@@H](CO)N(C(=O)Cc4ccccc4)[C@H]3C#N)cc2)c1`, the AC50 (Paired box protein Pax-8) was 19.5 µM (active), the AC50 [23] was 34.4 µM (active) and the AC50 [24] was 6.07 µM (active). The AC50 [25] was 10.8 µM (active), the AC50 [26] was > 70 µM (inactive) and the AC50 [27] was 25.5 µM (active).

Reference: ChEMBL document CHEMBL1201862, “PubChem BioAssay data set” (2004)
